Measured values reported in patent publication US10040813B2, “Compounds as positive allosteric modulators for erythropoietin and erythropoietin receptor to treat erythropoietin deficiency diseases” (ACAHEALTH PHARMA & BIOTECH CO., LTD., priority 2015, dated 2018).
“Also recorded” adds a separate entry of the source.

Tested on: cisplatin-induced nephropathy in mice
Test: Cisplatin-induced nephropathy mouse model (anaemia and renal function)
Type: in vivo
Method: Forty six-to-seven-week-old C57Bl/6J male mice were i.p. injected with three doses of cisplatin (Sigma-Aldrich), following the scheme of 7, 6, and 6 mg·kg-1 body weight, at 4 to 5 day intervals, and the normal group (n=4) was injected with saline (FIG. 1 scheme). On day 12, the collected serum samples were assayed for the urea nitrogen content (BUN). Mice with BUN values greater than 80 mg·dL-1 were chosen for the experiment. An average seventy percent of injected mice were successful induced renal dysfunction, and the ineffective mice were excluded from the EH202 treating experiments. The mice were subsequently divided randomly into 4 cohorts comprising the control (Ctrl, n=6) and three EH202-treated groups (n=5 to 6 for each group) for an additional 2 weeks. Blood samples from all the mice were collected every 5 days. The RBC numbers were determined from the complete blood cell count using a Sysmex Kx-21 haematology analyser (Sysmex America), and the serum BUN and creatinine levels were determined using a commercial kit (Randox Laboratories Ltd. United Kingdom). All results are expressed as the mean±SEM. The statistical analysis was performed using Student's t-test. One-way ANOVA was used to examine the differences across the animal experimental groups. The posthoc differences between the means of the experimental groups were determined via Tukey's test. P<0.05 was considered significant.

## OC[C@H]1OC(Oc2c(/C=C/c3ccc(F)cc3)ccc3ccccc23)[C@H](O)[C@@H](O)[C@@H]1O (stereo partly drawn) [EH202, (Naphthanol-4′fluoro-stilbenzene)-1-O-β-D-glycoside]
10, 30 and 90 mg·kg-1 treatment groups, day 29, FIG. 2C
  BUN levels: accelerates the recovery from renal dysfunction; also recorded: significantly recovered
30 and 90 mg·kg-1, FIGS. 2D and 2E
  recovery of anaemia (HGB level, RBC numbers): increasing recovery of anaemia
30 and 90 mg·kg-1 for 10 days, day 24, FIG. 2B
  recovery of renal dysfunction (creatinine level in the peripheral blood): accelerates the recovery from renal dysfunction; also recorded: almost complete recovery of renal dysfunction
Day 24, FIG. 2D
  recovery from anemia, hemoglobin (HGB) level in the peripheral blood: accelerates the recovery from anemia
Day 29, FIG. 2E
  recovery from anemia, RBC numbers in the peripheral blood: accelerates the recovery from anemia
